Source: patent publication US20060142319A1, “Pyridyl-substituted spiro-hydantoin crystalline forms and process” (priority 2004, published 2006)

What was measured:
CYP 2C19 = CYP 2C19 (Homo sapiens, UniProt P33261); assay: CYP assay; assay type: in vitro ADME; settings: CYP assay per Drug Metabolism and Disposition 28, 1440-1448 (2000)
Experimental: The CYP assay was conducted according to the procedure in Drug Metabolism and Disposition, 28, 1440-1448 (2000).

[1] = Microsomal liver assay (rate of oxidative metabolism); assay type: in vitro ADME; settings: human liver microsomes; 3 μM test compound, 1 mg/mL microsomal proteins, NADPH, 37° C.
Experimental: Mouse and rat liver microsomes were purchased from XenoTech LLC (Kansas City, Kans.), and human liver microsomes were obtained from BD Gentest (Woburn, Mass.).
The oxidative metabolism in liver microsomes of various species was studied under the following condition: 3 μM test compound (organic solvent content <0.1%), 1 mg/mL microsomal proteins, 1 mM β-nicotinamide adenine dinucleotide phosphase (β-NADPH), 100 mM phosphate buffer (pH 7.4), and 6.7 mM magnesium chloride. The reaction (n=3) was initiated by the addition of NADPH followed by incubation at 37° C. for 20 min. Aliquots of samples (0.1 mL) were taken at 0, 5, and 20 min, and the reaction was quenched by the addition of three volumes of acetonitrile. Samples were stored at −20° C. until analysis.
The rate of oxidation in liver microsomes was determined from the following equation: rate (nmol/min/mg protein)=k*C0/Cprotein, where k (1/min) is the turnover rate constant estimated from non-linear regression of the percent compound remaining (y)-time (t) curve using the equation y=y0*exp(−k*t); C0 is initial drug concentration (μM), and Cprotein is microsomal protein concentration (mg/mL).
Rates of metabolism are “binned” (classified) as follows: […]

Chain of CYP 2C19 (P33261 whole entry): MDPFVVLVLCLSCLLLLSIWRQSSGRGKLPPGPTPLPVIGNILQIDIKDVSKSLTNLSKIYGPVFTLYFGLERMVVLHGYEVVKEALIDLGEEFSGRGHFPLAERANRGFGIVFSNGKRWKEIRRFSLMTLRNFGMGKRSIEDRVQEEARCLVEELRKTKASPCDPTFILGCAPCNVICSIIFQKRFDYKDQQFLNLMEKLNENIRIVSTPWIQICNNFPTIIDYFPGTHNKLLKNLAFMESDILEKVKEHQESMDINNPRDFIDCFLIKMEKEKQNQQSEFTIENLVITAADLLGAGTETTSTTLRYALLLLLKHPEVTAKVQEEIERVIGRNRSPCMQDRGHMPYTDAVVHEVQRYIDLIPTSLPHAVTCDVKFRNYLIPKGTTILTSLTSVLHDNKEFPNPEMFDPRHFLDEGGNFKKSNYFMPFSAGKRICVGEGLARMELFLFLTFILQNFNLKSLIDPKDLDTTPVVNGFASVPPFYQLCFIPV

CN1C(=O)N(c2cc(Cl)cc(Cl)c2)C(=O)[C@]12CN(c1ccccn1)C[C@H]2c1ccc(C#N)cc1 (relative stereo) [4-[(5S*,9R*)-3-(3,5-dichlorophenyl)-1-methyl-2,4-dioxo-7-pyridin-2-yl-1,3,7-triazaspiro[4.4]non-9-yl]-benzonitrile]
IC50 (CYP 2C19): 0.11 µM
rate of metabolism [1]: 0.2 nmol/min/mg

CN1C(=O)N(c2cc(Cl)cc(Cl)c2)C(=O)[C@]12CN(c1ccc(C(=O)O)cn1)C[C@H]2c1ccc(C#N)cc1 [IId, 6-[(5S,9R)-9-(4-cyanophenyl)-3-(3,5-dichlorophenyl)-1-methyl-2,4-dioxo-1,3,7-triazaspiro[4.4]non-7-yl]nicotinic acid]
IC50 (CYP 2C19): 38.2 ± 2.22 µM
rate of metabolism [1]: 0.01 ± 0.01 nmol/min/mg
